Assay results taken from US4388237A, “6(1-Piperazinyl), piperidino and (1(homopiperazinyl)11-cyanomethylene morphanthridines” (BASF Aktiengesellschaft, priority 1979, dated 1983).
Entries after “also recorded” stand apart in the source; their conditions may differ. Where a name gives a salt, the structure may show the parent alone.

What was measured:
Type in all cases: in vivo
[1] = system: female NMRI mice; assay: Analgesic effect (D'Amour and Smith tail-flick method); details: for Analgesic effect ED 100%: intraperitoneal, mice, dose lengthening tail-flick reaction time by 100%, 30 minutes after administration; for Analgesic effect R.A. (relative activity): relative to Clozapin (1.00); for Analgesic effect (in words): discussion of Table 1
Description: The analgesic effect is determined by means of the D'Amour and Smith (1941) tail-flick method. In this, the substances are administered intraperitoneally to groups of 10 female NMRI mice. The pain reaction is triggered 30 minutes after administration. The reaction time, until the tail is flicked out of the way after exposure to a focused light beam, is measured.

[2] = system: female NMRI mice; assay: Sedative effect (orientation hypermotility); details: for Sedative effect R.A. (relative activity): relative to Clozapin (1.00); for Sedative effect (in words): discussion of Table 1
Description: The substances are administered orally to groups of 4×3 or 8×3 female NMRI mice. The orientation hypermotility induced by a new environment is determined photoelectrically, 30 minutes after the administration of the substances, for a period of 30 minutes.

[3] = system: female Sprague-Dawley rats; assay: Apomorphine-antagonistic effect (jaw movements, mandibulogram); details: for Apomorphine antagonism R.A. (relative activity): relative to Clozapin (1.00)
Description: 4. Apomorphine-antagonistic effect
Jaw motions are triggered in groups of 4-6 female Sprague-Dawley rats by subcutaneous administration of 1.5 mg of apomorphine/kg, and are recorded by means of implanted electrodes (Kubacki mandibulogram, 1978) .

[4] = system: female NMRI mice; assay: Anti-cholinergic effect (protection against death from Physostigmin)
Description: 3. Anti-cholinergic effect
A lethal dose (0.825 mg/kg) of Physostigmin is administered subcutaneously to groups of 10 female NMRI mice. The test substances are administered orally 30 minutes before administering the Physostigmin.

Structure (SMILES) | Analgesic effect ED 100% [1] [mg/kg] | Sedative effect R.A. (relative activity) [2] | Analgesic effect R.A. (relative activity) [1] | Apomorphine antagonism R.A. (relative activity) [3] | also measured
Cc1ccc2c(c1)N=C(N1CCN(C)CC1)c1ccccc1C2=CC#N (mixture of isomers) [13a cis-trans M, cis,trans-3-Methyl-11-cyanomethylene-6-(4-methylpiperazin-1-yl)-morphanthridine] | 5.17 |  |  |  | 
Cc1ccc2c(c1)C(=CC#N)c1ccccc1C(N1CCN(C)CC1)=N2 (mixture of isomers) [13b cis-trans M, cis,trans-2-Methyl-11-cyanomethylene-6-(4-methyl-piperazin-1-yl)-morphanthridine] | 10 |  |  |  | 
CCN1CCN(C2=Nc3ccccc3C(=CC#N)c3ccccc32)CC1 (mixture of isomers) [31 cis-trans M, cis,trans-11-Cyanomethylene-6-(4-ethyl-piperazin-1-yl)-morphanthridine] | > 10 |  |  |  | 
N#CC=C1c2ccccc2N=C(N2CCCNCC2)c2ccccc21 (mixture of isomers) [32 cis-trans M, cis,trans-11-Cyanomethylene-6-homopiperazin-1-yl-morphanthridine.HCl.H2 O] | 46.4 | > 0.22 | 0.04 | < 0.08 | 
N#CC=C1c2ccccc2N=C(NCCN2CCCCC2)c2ccccc21 (mixture of isomers) [38 cis-trans M, cis,trans-11-Cyanomethylene-6-(2-piperidin-1-yl-ethylamino)-morphanthridine.1/2H2 O] | > 10 | 2.94 |  | 0.17 | 
C[N+]1([O-])CCN(C2=Nc3ccccc3C(=CC#N)c3ccccc32)CC1 (mixture of isomers) [67 cis-trans M, cis,trans-11-Cyanomethylene-6-(4-methyl-4-oxypiperazin-1-yl)-morphanthridine.2H2 O] | > 46.4 | 0.33 | < 0.04 | 0.09 | 
CN1CCN(C2=Nc3ccccc3/C(=C/C#N)c3ccccc32)CC1 [1 cis-isomer, cis-11-cyanomethylene-6-(4-methylpiperazin-1-yl)-morphanthridine] | 31.6 |  |  |  | Anti-cholinergic effect (in words) ([4]; discussion of Table 1, Physostigmin antagonism): approximately comparable anti-cholinergic effect
CN1CCN(C2=Nc3ccccc3C(=CC#N)c3ccccc32)CC1 [1 cis-trans M, cis- and trans-11-Cyanomethylene-6-(4-methyl-piperazin-1-yl)-morphanthridine] | 46.4 |  |  |  | Sedative effect (in words) ([2]; listed as Example 1 (cis-trans mixture)): relatively strong sedative effects; also recorded: more strongly sedative; Analgesic effect (in words) [1]: not analgesically active; ED50 ([4]; Mus musculus, read-out: Anti-cholinergic effect ED 50%, oral, 30 minutes before Physostigmin 0.825 mg/kg subcutaneous, mice, dose protecting 50% of the animals against death): 6.26 mg/kg; Apomorphine-antagonistic effect (in words) ([3]; discussion of Table 1): somewhat weaker than that of Clozapin
CN1CCN(C2=Nc3ccccc3/C(=C\C#N)c3ccccc32)CC1 [1 trans-isomer, trans-11-cyanomethylene-6-(4-methyl-piperazin-1-yl)-morphanthridine] | > 21.5 |  |  |  | 
Cc1ccc2c(c1)N=C(N1CCN(C)CC1)c1ccccc1/C2=C\C#N [13a cis-isomer, cis-3-methyl-11-cyanomethylene-6-(4-methyl-piperazin-1-yl)-morphanthridine] | 0.74 |  |  |  | Sedative effect (in words) [2]: responsible for the strong sedative and strong analgesic effects; Analgesic effect (in words) [1]: An analgesic effect is found; also recorded: responsible for the strong sedative and strong analgesic effects
Cc1ccc2c(c1)N=C(N1CCN(C)CC1)c1ccccc1/C2=C/C#N [13a trans-isomer, trans-3-methyl-11-cyanomethylene-6-(4-methylpiperazin-1-yl)-morphanthridine] | 68.1 |  |  |  | 
CCN1CCN(C2=Nc3ccccc3/C(=C\C#N)c3ccccc32)CC1 [31 trans-isomer, trans-11-cyanomethylene-6-(4-ethyl-piperazin-1-yl)-morphanthridine] | > 46.4 |  |  |  | 
C[N+]1([O-])CCN(C2=Nc3ccccc3/C(=C/C#N)c3ccccc32)CC1 [67 cis-isomer, cis-11-cyanomethylene-6-(4-methyl-4-oxy-piperazin-1-yl)-morphanthridine] | > 46.4 | 0.26 | < 0.04 | < 0.08 | 
C[N+]1([O-])CCN(C2=Nc3ccccc3/C(=C\C#N)c3ccccc32)CC1 [67 trans-isomer, t rans-11-cyanomethylene-6-(4-methyl-4-oxy-piperazin-1-yl)-morphanthridine] | > 100 | 0.04 | < 0.02 | 0.32 | 
CN1CCN(C2=Nc3cc(Cl)ccc3Nc3ccccc32)CC1 [Clozapin, reference compound] | 2.08 | 1.00 | 1.00 | 1.00 | 
CN1CCN(C2=Nc3ccccc3Cc3ccccc32)CC1 [Perlapin, reference compound] |  | 2.31 | < 0.10 | 0.37 | 
